For this assay, the system named is α-SMA expression in MRC5 cells. The experiment in a line: inhibition of α-SMA expression in MRC5 cells, image screening method. The format is cell-based. The conditions noted are these: Homo sapiens; MRC5, compound 10 μM, TGF-β1 5 ng/mL, 72 hours, relative to TGF-β1 alone; read-out: Inhibitory activity (α-SMA expression inhibition). The procedure:
The ability of the compounds according to the present invention to inhibit the expression of α-SMA, which is a biomarker for pulmonary fibrosis, was evaluated by an image screening method. MRC5 cells were treated with the compound (10 μM) or DMSO under the condition of TGF-31 (5 ng/mL). 72 hours later, the cells were fixed with a 4% formaldehyde solution, treated with a 0.1% Triton-x100 solution, and treated with a 1% BSA solution to mask non-specific binding caused by antibodies. Anti-α-SMA-FITC (Sigma Aldrich) and anti-GAPDH (Cell Signaling Technology) were used as primary antibodies, and anti-mouse-TRITC was used as a secondary antibody. Imaging and analysis of the results were performed using Cytation5_Gen5_Version 3.12.08 (Bio Tek). Relative to the α-SMA expression level when TGF-31 was treated alone, the α-SMA expression level when both the compound and TGF-31 were treated was calculated as the ability of α-SMA expression inhibition of the corresponding compound.

Bounds are passed on as bounds.

For `O=C(N[C@@H]1CCNC1)N1CCN(c2ccc(F)cc2)c2cc(F)ccc21` [Compound 1, (R)-6-fluoro-4-(4-fluorophenyl)-N-(pyrrolidin-3-yl)-3,4-dihydroquinoxaline-1(2H)-carboxamide], the inhibition at 10 µM was no less than 70%.

`CN1CC[C@@H](NC(=O)N2CCN(c3ccc(F)cc3)c3cc(F)ccc32)C1` [Compound 2, (R)-6-fluoro-4-(4-fluorophenyl)-N-(1-methylpyrrolidin-3-yl)-3,4-dihydroquinoxaline-1(2H)-carboxamide]: the inhibition at 10 µM is no less than 70%.

Take `CC(C)N1CC[C@@H](NC(=O)N2CCN(c3ccc(F)cc3)c3cc(F)ccc32)C1` [Compound 3, (R)-6-fluoro-4-(4-fluorophenyl)-N-(1-isopropylpyrrolidin-3-yl)-3,4-dihydroquinoxaline-1(2H)-carboxamide]: the inhibition at 10 µM is no less than 70%.

With `CC(C)CN1CC[C@@H](NC(=O)N2CCN(c3ccc(F)cc3)c3cc(F)ccc32)C1` [Compound 4, (R)-6-fluoro-4-(4-fluorophenyl)-N-(1-isobutylpyrrolidin-3-yl)-3,4-dihydroquinoxaline-1(2H)-carboxamide], the inhibition at 10 µM was no less than 70%.

Consider `O=C(N[C@@H]1CCN(C(=O)C(F)(F)F)C1)N1CCN(c2ccc(F)cc2)c2cc(F)ccc21` [Compound 5, (R)-6-fluoro-4-(4-fluorophenyl)-N-(1-(2,2,2-trifluoroacetyl)pyrrolidin-3-yl)-3,4-dihydroquinoxaline-1(2H)-carboxamide], for which the inhibition at 10 µM is 10 to 30%.

`CC(=O)N1CC[C@@H](NC(=O)N2CCN(c3ccc(F)cc3)c3cc(F)ccc32)C1` [Compound 6, (R)-N-(1-acetylpyrrolidin-3-yl)-6-fluoro-4-(4-fluorophenyl)-3,4-dihydroquinoxaline-1(2H)-carboxamide]: the inhibition at 10 µM fell in the range of 10 to 30%.

Consider `CS(=O)(=O)N1CC[C@@H](NC(=O)N2CCN(c3ccc(F)cc3)c3cc(F)ccc32)C1` [Compound 7, (R)-6-fluoro-4-(4-fluorophenyl)-N-(1-(methylsulfonyl)pyrrolidin-3-yl)-3,4-dihydroquinoxaline-1(2H)-carboxamide], for which the inhibition at 10 µM lay within 10 to 30%.

Regarding `O=C(N[C@H]1CCNC1)N1CCN(c2ccc(F)cc2)c2cc(F)ccc21` [Compound 8, (S)-6-fluoro-4-(4-fluorophenyl)-N-(pyrrolidin-3-yl)-3,4-dihydroquinoxaline-1(2H)-carboxamide], the inhibition at 10 µM is no less than 70%.

For `CN1CC[C@H](NC(=O)N2CCN(c3ccc(F)cc3)c3cc(F)ccc32)C1` [Compound 9, (S)-6-fluoro-4-(4-fluorophenyl)-N-(1-methylpyrrolidin-3-yl)-3,4-dihydroquinoxaline-1(2H)-carboxamide], the inhibition at 10 µM lay within 50 to 70%.

Regarding `CC(C)N1CC[C@H](NC(=O)N2CCN(c3ccc(F)cc3)c3cc(F)ccc32)C1` [Compound 10, (S)-6-fluoro-4-(4-fluorophenyl)-N-(1-isopropylpyrrolidin-3-yl)-3,4-dihydroquinoxaline-1(2H)-carboxamide], the inhibition at 10 µM was no less than 70%.

Regarding `N[C@H]1CCN(C(=O)N2CCN(c3ccc(F)cc3)c3cc(F)ccc32)C1` [Compound 11, (S)-(3-aminopyrrolidin-1-yl)(6-fluoro-4-(4-fluorophenyl)-3,4-dihydroquinoxalin-1(2H)-yl)methanone], the inhibition at 10 µM is 30 to 50%.

`CN[C@H]1CCN(C(=O)N2CCN(c3ccc(F)cc3)c3cc(F)ccc32)C1` [Compound 12, (S)-(6-fluoro-4-(4-fluorophenyl)-3,4-dihydroquinoxalin-1(2H)-yl)(3-(methylamino)pyrrolidin-1-yl)methanone]: the inhibition at 10 µM lay within 30 to 50%.

As to `CC(C)CN[C@H]1CCN(C(=O)N2CCN(c3ccc(F)cc3)c3cc(F)ccc32)C1` [Compound 13, (S)-(6-fluoro-4-(4-fluorophenyl)-3,4-dihydroquinoxalin-1(2H)-yl)(3-(isobutylamino)pyrrolidin-1-yl)methanone], the inhibition at 10 µM was no less than 70%.

Consider `CC(C)N[C@H]1CCN(C(=O)N2CCN(c3ccc(F)cc3)c3cc(F)ccc32)C1` [Compound 14, (S)-(6-fluoro-4-(4-fluorophenyl)-3,4-dihydroquinoxalin-1(2H)-yl)(3-(isopropylamino)pyrrolidin-1-yl)methanone], for which the inhibition at 10 µM lay within 30 to 50%.

As to `CC(=O)N[C@H]1CCN(C(=O)N2CCN(c3ccc(F)cc3)c3cc(F)ccc32)C1` [Compound 15, (S)-N-(1-(6-fluoro-4-(4-fluorophenyl)-1,2,3,4-tetrahydroquinoxaline-1-carbonyl)pyrrolidin-3-yl)acetamide], the inhibition at 10 µM fell in the range of 10 to 30%.

For the molecule `CS(=O)(=O)N[C@H]1CCN(C(=O)N2CCN(c3ccc(F)cc3)c3cc(F)ccc32)C1` [Compound 16, (S)-N-(1-(6-fluoro-4-(4-fluorophenyl)-1,2,3,4-tetrahydroquinoxaline-1-carbonyl)pyrrolidin-3-yl)methanesulfonamide], the inhibition at 10 µM is 10 to 30%.

For `O=C(NC[C@H]1CCNC1)N1CCN(c2ccc(F)cc2)c2cc(F)ccc21` [Compound 17, (S)-6-fluoro-4-(4-fluorophenyl)-N-(pyrrolidin-3-ylmethyl)-3,4-dihydroquinoxaline-1(2H)-carboxamide], the inhibition at 10 µM fell in the range of 30 to 50%.

Regarding `CN1CC[C@H](CNC(=O)N2CCN(c3ccc(F)cc3)c3cc(F)ccc32)C1` [Compound 18, (R)-6-fluoro-4-(4-fluorophenyl)-N-((1-methylpyrrolidin-3-yl)methyl)-3,4-dihydroquinoxaline-1(2H)-carboxamide], the inhibition at 10 µM was in the range of 50 to 70%.

Turning to `CC(C)N1CC[C@H](CNC(=O)N2CCN(c3ccc(F)cc3)c3cc(F)ccc32)C1` [Compound 19, (R)-6-fluoro-4-(4-fluorophenyl)-N-((1-isopropylpyrrolidin-3-yl)methyl)-3,4-dihydroquinoxaline-1(2H)-carboxamide], the inhibition at 10 µM fell in the range of 50 to 70%.

For `CC(C)CN1CC[C@H](CNC(=O)N2CCN(c3ccc(F)cc3)c3cc(F)ccc32)C1` [Compound 20, (R)-6-fluoro-4-(4-fluorophenyl)-N-((1-isobutylpyrrolidin-3-yl)methyl)-3,4-dihydroquinoxaline-1(2H)-carboxamide], the inhibition at 10 µM is no less than 70%.

As for `O=C(NC[C@H]1CCCN1)N1CCN(c2ccc(F)cc2)c2cc(F)ccc21` [Compound 21, (R)-6-fluoro-4-(4-fluorophenyl)-N-(pyrrolidin-2-ylmethyl)-3,4-dihydroquinoxaline-1(2H)-carboxamide], the inhibition at 10 µM is no less than 70%.

In the case of `CN1CCC[C@@H]1CNC(=O)N1CCN(c2ccc(F)cc2)c2cc(F)ccc21` [Compound 22, (R)-6-fluoro-4-(4-fluorophenyl)-N-((1-methylpyrrolidin-2-yl)methyl)-3,4-dihydroquinoxaline-1(2H)-carboxamide], the inhibition at 10 µM was no less than 70%.

Consider `CC(C)N1CCC[C@@H]1CNC(=O)N1CCN(c2ccc(F)cc2)c2cc(F)ccc21` [Compound 23, (R)-6-fluoro-4-(4-fluorophenyl)-N-((1-isopropylpyrrolidin-2-yl)methyl)-3,4-dihydroquinoxaline-1(2H)-carboxamide], for which the inhibition at 10 µM is no less than 70%.

Take `CC(C)CN1CCC[C@@H]1CNC(=O)N1CCN(c2ccc(F)cc2)c2cc(F)ccc21` [Compound 24, (R)-6-fluoro-4-(4-fluorophenyl)-N-((1-isobutylpyrrolidin-2-yl)methyl)-3,4-dihydroquinoxaline-1(2H)-carboxamide]: the inhibition at 10 µM is no less than 70%.

Take `CN1CC[C@@H](CNC(=O)N2CCN(c3ccc(F)cc3)c3cc(F)ccc32)C1` [Compound 25, (S)-6-fluoro-4-(4-fluorophenyl)-N-((1-methylpyrrolidin-3-yl)methyl)-3,4-dihydroquinoxaline-1(2H)-carboxamide]: the inhibition at 10 µM lay in the range of 50 to 70%.

With `CC(C)N1CC[C@@H](CNC(=O)N2CCN(c3ccc(F)cc3)c3cc(F)ccc32)C1` [Compound 26, (S)-6-fluoro-4-(4-fluorophenyl)-N-((1-isopropylpyrrolidin-3-yl)methyl)-3,4-dihydroquinoxaline-1(2H)-carboxamide], the inhibition at 10 µM fell in the range of 50 to 70%.

Consider `CC(C)CN1CC[C@@H](CNC(=O)N2CCN(c3ccc(F)cc3)c3cc(F)ccc32)C1` [Compound 27, (S)-6-fluoro-4-(4-fluorophenyl)-N-((1-isobutylpyrrolidin-3-yl)methyl)-3,4-dihydroquinoxaline-1(2H)-carboxamide], for which the inhibition at 10 µM is no less than 70%.

As for `O=C(NCC1CC1)N1CCN(c2ccc(F)cc2)c2cc(F)ccc21` [Compound 28, N-(cyclopropylmethyl)-6-fluoro-4-(4-fluorophenyl)-3,4-dihydroquinoxaline-1(2H)-carboxamide], the inhibition at 10 µM fell in the range of 10 to 30%.

Turning to `O=C(NC1CCNCC1)N1CCN(c2ccc(F)cc2)c2cc(F)ccc21` [Compound 29, 6-fluoro-4-(4-fluorophenyl)-N-(piperidin-4-yl)-3,4-dihydroquinoxaline-1(2H)-carboxamide], the inhibition at 10 µM fell in the range of 50 to 70%.

Take `CN1CCC(NC(=O)N2CCN(c3ccc(F)cc3)c3cc(F)ccc32)CC1` [Compound 30, 6-fluoro-4-(4-fluorophenyl)-N-(1-methylpiperidin-4-yl)-3,4-dihydroquinoxaline-1(2H)-carboxamide]: the inhibition at 10 µM lay within 50 to 70%.

On to `CC(C)N1CCC(NC(=O)N2CCN(c3ccc(F)cc3)c3cc(F)ccc32)CC1` [Compound 31, 6-fluoro-4-(4-fluorophenyl)-N-(1-isopropylpiperidin-4-yl)-3,4-dihydroquinoxaline-1(2H)-carboxamide], for which the inhibition at 10 µM lay in the range of 50 to 70%.

The values are drawn from patent US20260265189A1, “NOVEL COMPOUND, AND PHARMACEUTICAL COMPOSITION COMPRISING SAME AS ACTIVE INGREDIENT” (SAPIENSBIO INC., priority 2022, published 2026).
